Biological target: Full length SHP2 protein (Recombinant Human SHP-2) (Homo sapiens (Human), UniProt Q06124)
Assay: SHP2 biochemical assay (DiFMUP substrate, activating peptide IRSI_2pY)
Settings: SHP-2 biochemical assay IC50 (μM), activating peptide IRSI_2pY 140 nM, DiFMUP, 60 min
Protocol: The inhibition of SHP2 by compounds of the invention was monitored using the surrogate substrate DiFMUP after protein activation by a peptide bearing two appropriately spaced phosphotyrosine. […] The generation of the DiFMU product by activated SHP2 was monitored through Fluorescence measurement with a PerkinElmer Envision reader. The inhibitor dose response curves were analyzed with Genedata Screener.

Chain of Full length SHP2 protein (Recombinant Human SHP-2) (Q06124 2-593): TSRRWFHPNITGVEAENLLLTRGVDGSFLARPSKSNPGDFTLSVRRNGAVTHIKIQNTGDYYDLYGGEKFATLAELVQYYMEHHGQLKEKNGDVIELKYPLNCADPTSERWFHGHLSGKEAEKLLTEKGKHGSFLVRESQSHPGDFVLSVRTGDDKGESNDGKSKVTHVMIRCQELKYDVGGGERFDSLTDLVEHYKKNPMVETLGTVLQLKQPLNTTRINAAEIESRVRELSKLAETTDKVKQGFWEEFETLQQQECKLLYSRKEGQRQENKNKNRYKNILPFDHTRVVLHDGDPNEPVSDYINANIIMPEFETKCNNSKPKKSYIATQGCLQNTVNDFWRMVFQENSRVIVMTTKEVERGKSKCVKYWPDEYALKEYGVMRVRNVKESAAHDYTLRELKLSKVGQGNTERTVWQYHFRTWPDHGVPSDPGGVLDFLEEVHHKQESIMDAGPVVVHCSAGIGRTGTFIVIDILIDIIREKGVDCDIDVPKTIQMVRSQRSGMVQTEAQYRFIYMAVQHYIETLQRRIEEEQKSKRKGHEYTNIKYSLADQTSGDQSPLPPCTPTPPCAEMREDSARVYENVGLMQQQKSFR

For `Cc1c(N2CCC3(CC2)Cc2ccccc2[C@@H]3N)nc(C)n(-c2cccc(Cl)c2Cl)c1=O` (atropisomer, axis not shown) [Compound 74d, (3P)-6-[(1R)-1-amino-1,3-dihydrospiro[indene-2,4′-piperidin]-1′-yl]-3-(2,3-dichlorophenyl)-2,5-dimethyl-3,4-dihydropyrimidin-4-one], which IC50 is on record?
Its IC50 is > 10 µM.

`Cc1nc(C2=CC[C@@](C)(N)CC2)cc(=O)n1-c1cccc(Cl)c1Cl` (racemic) [Compound 6a, (+/−)-(3M)-6-[(4S)-4-amino-4-methylcyclohex-1-en-1-yl]-3-(2,3-dichlorophenyl)-2-methyl-3,4-dihydropyrimidin-4-one] was tested. Which IC50 did it give?
Its IC50 is 19 µM.

For `Cc1nc(C2=CC[C@@](C)(N)CC2)cc(=O)n1-c1cccc(Cl)c1Cl` (racemic) [Compound 6b, (+/−)-(3P)-6-[(4S)-4-amino-4-methylcyclohex-1-en-1-yl]-3-(2,3-dichlorophenyl)-2-methyl-3,4-dihydropyrimidin-4-one], which IC50 is on record?
Its IC50 is > 10 µM.

`Cc1nc(N2C[C@@H]3CCC[C@]3(CN)C2)c(C(F)(F)F)c(=O)n1-c1cccc(Cl)c1Cl` (racemic) [Compound 25, (+/−)-6-[(3aS,6aR)-3a-(aminomethyl)-octahydrocyclopenta[c]pyrrol-2-yl]-3-(2,3-dichlorophenyl)-2-methyl-5-(trifluoromethyl)-3,4-dihydropyrimidin-4-one] was tested. Which IC50 did it give?
Its IC50 is 14 µM.

How did the IC50 turn out when `Cc1nc(N2CC[C@@H](N)[C@@H](O)C2)cc(=O)n1-c1cccc(Cl)c1Cl` (racemic) [Compound 30, (+/−)-6-[(3S,4R)-4-amino-3-hydroxypiperidin-1-yl]-3-(2,3-dichlorophenyl)-2-methyl-3,4-dihydropyrimidin-4-one] was run?
The IC50 was 13 µM.

For `Cc1c(N2C[C@H]3COC[C@@]3(CN)C2)nc(C)n(-c2cccc(Cl)c2Cl)c1=O` (racemic) [Compound 34, (+/−)-6-[(3aS,6aS)-3a-(aminomethyl)-hexahydro-1H-furo[3,4-c]pyrrol-5-yl]-3-(2,3-dichlorophenyl)-2,5-dimethyl-3,4-dihydropyrimidin-4-one], which IC50 is on record?
Its IC50 is 1.7 µM.

For `Cc1nc(N2CCC(C)([C@H](O)CN)CC2)cc(=O)n1-c1cccc(Cl)c1Cl` (racemic) [Compound 57a, (+/−)-(3M)-6-{4-[(1S)-2-amino-1-hydroxyethyl]-4-methylpiperidin-1-yl}-3-(2,3-dichlorophenyl)-2-methyl-3,4-dihydropyrimidin-4-one], which IC50 is on record?
The IC50 was > 10 µM.

With `Cc1nc(N2CCC(C)([C@H](O)CN)CC2)cc(=O)n1-c1cccc(Cl)c1Cl` (racemic) [Compound 57b, (+/−)-(3P)-6-{4-[(1S)-2-amino-1-hydroxyethyl]-4-methylpiperidin-1-yl}-3-(2,3-dichlorophenyl)-2-methyl-3,4-dihydropyrimidin-4-one] as the compound, how does the IC50 read?
The IC50 was 3 µM.

For `Cc1nc(N2CCC[C@](N)(CC(F)F)CC2)cc(=O)n1-c1cccc(Cl)c1Cl` (racemic) [Compound 58a, (+/−)-(3M)-6-4-[(1R)-4-amino-4-(2,2-difluoroethyl)-azepan-1-yl]-3-(2,3-dichlorophenyl)-2-methyl-3,4-dihydropyrimidin-4-one], which IC50 is on record?
Its IC50 is > 10 µM.

For `Cc1nc(N2CCC[C@](N)(CC(F)F)CC2)cc(=O)n1-c1cccc(Cl)c1Cl` (racemic) [Compound 58b, (+/−)-(3P)-6-4-[(1R)-4-amino-4-(2,2-difluoroethyl)-azepan-1-yl]-3-(2,3-dichlorophenyl)-2-methyl-3,4-dihydropyrimidin-4-one], which IC50 is on record?
The IC50 was 1.3 µM.

How did the IC50 turn out when `Cc1nc(N2CCC(C)(N3CC[C@H](O)C3)CC2)cc(=O)n1-c1cccc(Cl)c1Cl` (racemic) [Compound 72b, (+/−)-(3M)-3-(2,3-dichlorophenyl)-6-{4-[(3R)-3-hydroxy-pyrrolidin-1-yl]-4-methylpiperidin-1-yl}-2-methyl-3,4-dihydropyrimidin-4-one] was run?
Its IC50 is 6.4 µM.

Which IC50 does the source give for `Cc1nc(N2CCC3(CC2)CO[C@@H](C)[C@H]3N)cc(=O)n1-c1c(F)ccc(Cl)c1Cl` (single isomer, unassigned) [Compound 32b] here?
The IC50 was 1.9 µM.

For `Cc1nc(N2CCC3(CC2)CO[C@@H](C)[C@H]3N)nc(=O)n1-c1cccc(Cl)c1Cl` (single isomer, unassigned) [Compound 37b], which IC50 is on record?
Its IC50 is > 10 µM.

`[2H]C([2H])([2H])c1c(N2CCC3(CC2)CO[C@@H](C)[C@H]3N)nc(C)n(-c2cccc(Cl)c2Cl)c1=O` (single isomer, unassigned) [Compound 63a] was tested. Which IC50 did it give?
The IC50 was 6 µM.

How did the IC50 turn out when `Cc1nc(N(C)[C@H]2CC[C@](C)(N)CC2)cc(=O)n1-c1cccc(Cl)c1Cl` (single isomer, unassigned) [Compound 71a, 3-(2,3-dichlorophenyl)-2-methyl-6-{methyl[(trans)-4-amino-4-methylcyclohexyl]amino}-3,4-dihydropyrimidin-4-one] was run?
The IC50 was > 50 µM.

How did the IC50 turn out when `Cc1nc(N(C)[C@H]2CC[C@@](C)(N)CC2)cc(=O)n1-c1cccc(Cl)c1Cl` (single isomer, unassigned) [Compound 71b, 3-(2,3-dichlorophenyl)-2-methyl-6-{methyl[(cis)-4-amino-4-methylcyclohexyl]amino}-3,4-dihydropyrimidin-4-one] was run?
The IC50 was 20 µM.

Which IC50 does the source give for `Cc1nc(N2CCC(C)(N3CC[C@H](O)C3)CC2)cc(=O)n1-c1cccc(Cl)c1Cl` (single isomer, unassigned) [Compound 72a] here?
Its IC50 is > 10 µM.

Same assay, conditions: activating peptide IRSI_2pY 140 nM, DiFMUP, 60 min; read-out: SHP-2 biochemical assay IC50

`Cc1nc(N2CCC3(CC2)CO[C@@H](C)[C@H]3N)c(C(C)C)c(=O)n1-c1cccc(Cl)c1Cl` (atropisomer, axis not shown) [Compound 49a, (3P)-6-[(3S,4S)-4-amino-3-methyl-2-oxa-8-azaspiro[4.5]decan-8-yl]-3-(2,3-dichlorophenyl)-2-methyl-5-(propan-2-yl)-3,4-dihydropyrimidin-4-one] was tested. Which IC50 did it give?
The IC50 was > 10 µM.

`Cc1nc(N2C[C@H]3COCC[C@@]3(CN)C2)cc(=O)n1-c1cccc(Cl)c1Cl` (racemic) [Compound 19, (+/−)-6-[(3aS,7aR)-7a-(aminomethyl)-octahydropyrano[3,4-c]pyrrol-2-yl]-3-(2,3-dichlorophenyl)-2-methyl-3,4-dihydropyrimidin-4-one] was tested. Which IC50 did it give?
Its IC50 is 4 µM.

How did the IC50 turn out when `Cc1c(N2CCC3(CC2)CO[C@@H](C)[C@H]3N)nc(C)n(-c2cccc(Cl)c2Cl)c1=O` (single isomer, unassigned) [Compound 23a] was run?
The IC50 was 3.4 µM.

With `Cc1nc(N2CCC3(CC2)CO[C@@H](C)[C@H]3N)cc(=O)n1-c1c(F)ccc(Cl)c1Cl` (single isomer, unassigned) [Compound 32a] as the compound, how does the IC50 read?
The IC50 was > 10 µM.

For `Cc1nc(N2CCC(C)(CN)CC2)cc(=O)n1-c1c(F)ccc(Cl)c1Cl` (single isomer, unassigned) [Compound 33a, (3P)-6-[4-(aminomethyl)-4-methylpiperidin-1-yl]-3-(2,3-dichloro-6-fluorophenyl)-2-methyl-3,4-dihydropyrimidin-4-one], which IC50 is on record?
Its IC50 is > 10 µM.

`Cc1nc(N2CCC(C)(CN)CC2)cc(=O)n1-c1c(F)ccc(Cl)c1Cl` (single isomer, unassigned) [Compound 33b, (3M)-6-[4-(aminomethyl)-4-methylpiperidin-1-yl]-3-(2,3-dichloro-6-fluorophenyl)-2-methyl-3,4-dihydropyrimidin-4-one] was tested. Which IC50 did it give?
Its IC50 is 5.7 µM.

For `Cc1nc(N2CCC3(CCC[C@H]3N)CC2)cc(=O)n1-c1cccc(Cl)c1Cl` (single isomer, unassigned) [Compound 62a], which IC50 is on record?
The IC50 was > 10 µM.

How did the IC50 turn out when `COc1c(N2CCC3(CC2)CO[C@@H](C)[C@H]3N)nc(C)n(-c2cccc(Cl)c2Cl)c1=O` (single isomer, unassigned) [Compound 73a] was run?
The IC50 was > 10 µM.
